Laboratory results taken from patent US5464861A, “2-thioindoles (selenoindoles) and related disulfides (selenides) which inhibit protein tyrosine kinases and which have antitumor properties” (Warner-Lambert, priority 1993, dated 1995).
Like-named read-outs stand apart in the source and are kept apart here.

Tests used:
[1] = target: T1, human PDGF β receptor intracellular tyrosine kinase domain (Homo sapiens, UniProt P09619); assay: PDGF receptor tyrosine kinase inhibition assay (P^32 incorporation in Glu-Tyr); type: biochemical; settings: for inhibition at 100 µM: read-out: % Inhibition at 100 μM (PDGFR TK); for IC50: Table 2, PDGF-R, IC50 entries, read-out: IC50 (PDGFR TK)
T1 construct: human PDGF β receptor intracellular tyrosine kinase domain; made in house; host or cells: SF9 insect cells, recombinant baculovirus; cell lysates used
T1 sequence (P09619 554-1106 limits assumed): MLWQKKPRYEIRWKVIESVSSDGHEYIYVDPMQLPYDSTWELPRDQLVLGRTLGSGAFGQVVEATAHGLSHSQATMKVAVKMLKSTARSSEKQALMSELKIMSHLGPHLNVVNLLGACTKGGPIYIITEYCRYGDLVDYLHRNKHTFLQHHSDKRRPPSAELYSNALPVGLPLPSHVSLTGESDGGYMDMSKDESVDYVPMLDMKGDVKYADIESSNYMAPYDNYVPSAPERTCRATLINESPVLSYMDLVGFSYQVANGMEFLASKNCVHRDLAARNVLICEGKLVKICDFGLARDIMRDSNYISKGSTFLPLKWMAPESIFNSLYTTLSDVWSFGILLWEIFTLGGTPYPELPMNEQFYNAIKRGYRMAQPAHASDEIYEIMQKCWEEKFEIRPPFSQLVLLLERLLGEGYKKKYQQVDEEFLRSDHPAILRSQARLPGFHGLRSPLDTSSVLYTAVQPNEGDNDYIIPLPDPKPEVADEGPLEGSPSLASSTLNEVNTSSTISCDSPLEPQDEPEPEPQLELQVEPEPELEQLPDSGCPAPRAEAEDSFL
Method: Recombinant baculovirus containing human PDGF β receptor intracellular tyrosine kinase domain was used to infect SF9 cells to overexpress the protein, and cell lysates were used for the assay. The ability of the tyrosine kinase to phosphorylate glutamate tyrosine substrate in the presence of P^32 -ATP and inhibitor was measured by counting the incorporation of P^32 in Glu-Tyr in TCAprecipitable material.

[2] = target: T2, epidermal growth factor receptor tyrosine kinase (Homo sapiens, UniProt P00533); assay: EGF receptor tyrosine kinase assay (P^32 incorporation in GAT); type: biochemical; settings: for inhibition at 100 µM: EGRF-R, read-out: % Inhibition at 100 μM (EGFR TK)
T2 construct: A native 170,000 epidermal growth factor receptor-kinase complex from shed plasma membrane vesicles; endogenous in cells
T2 sequence (P00533 25-1210): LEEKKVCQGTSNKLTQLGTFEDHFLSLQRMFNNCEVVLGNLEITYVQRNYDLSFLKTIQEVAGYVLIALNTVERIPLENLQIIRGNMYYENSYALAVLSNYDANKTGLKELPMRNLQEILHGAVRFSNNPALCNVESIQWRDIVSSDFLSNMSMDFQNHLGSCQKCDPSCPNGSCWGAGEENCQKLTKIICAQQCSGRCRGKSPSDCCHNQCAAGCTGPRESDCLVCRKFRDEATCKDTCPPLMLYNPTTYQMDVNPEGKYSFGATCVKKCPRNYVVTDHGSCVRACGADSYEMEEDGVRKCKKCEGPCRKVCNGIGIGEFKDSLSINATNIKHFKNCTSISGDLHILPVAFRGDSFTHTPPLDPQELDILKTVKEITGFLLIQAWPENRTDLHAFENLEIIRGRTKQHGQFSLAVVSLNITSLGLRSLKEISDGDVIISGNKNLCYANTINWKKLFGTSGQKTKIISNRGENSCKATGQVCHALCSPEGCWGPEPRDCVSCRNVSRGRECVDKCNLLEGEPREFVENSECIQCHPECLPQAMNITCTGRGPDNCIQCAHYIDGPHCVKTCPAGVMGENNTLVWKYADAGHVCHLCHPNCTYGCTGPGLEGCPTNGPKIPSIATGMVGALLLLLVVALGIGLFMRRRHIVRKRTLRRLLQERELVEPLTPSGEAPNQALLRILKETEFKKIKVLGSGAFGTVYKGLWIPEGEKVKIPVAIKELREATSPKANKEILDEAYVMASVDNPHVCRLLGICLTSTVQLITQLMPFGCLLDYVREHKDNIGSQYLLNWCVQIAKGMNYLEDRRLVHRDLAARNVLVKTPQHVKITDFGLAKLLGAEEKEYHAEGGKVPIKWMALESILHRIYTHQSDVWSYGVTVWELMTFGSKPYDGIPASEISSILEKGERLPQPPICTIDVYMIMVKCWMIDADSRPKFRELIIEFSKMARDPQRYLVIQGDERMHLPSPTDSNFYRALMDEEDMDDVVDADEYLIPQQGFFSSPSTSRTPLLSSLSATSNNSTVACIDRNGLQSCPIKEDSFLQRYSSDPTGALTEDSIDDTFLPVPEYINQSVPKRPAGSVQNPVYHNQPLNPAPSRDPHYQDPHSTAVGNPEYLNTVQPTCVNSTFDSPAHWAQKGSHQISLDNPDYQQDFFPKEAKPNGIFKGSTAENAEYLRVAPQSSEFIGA
T2 sequence (P01133 971-1023 partner limits assumed): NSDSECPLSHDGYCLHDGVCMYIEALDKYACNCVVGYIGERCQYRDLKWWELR
Method: At the time of assay, membranes were solubilized in 4% Triton X-100 and glycerol. The reaction is carried out in wells of a 96-well microtiter plate in a total volume of […]. Buffer containing 20 mMHepes (pH 7.4), 15 mMMgCl2, mM MnCl2, and 0.02% BSA followed by […] of membrane protein and 150 ng of epidermal growth factor. The plates are incubated for 10 minutes at room temperature to activate the receptor kinase. […] ATP plus or minus compound are added and incubated 10 minutes at room temperature.

[3] = tested on: Swiss 3T3 mouse fibroblasts; assay: Growth inhibition assay, Swiss 3T3 fibroblasts; type: cell-based; settings: Swiss-3T3, 72 h, read-out: IC50 growth inhibition
Method: Swiss 3T3 mouse fibroblasts were maintained in dMEM/F12 media containing 10% fetal calf serum. […] The cells were grown at 37° C. under 5% CO2 for 72 hours and then counted by Coulter counter. The data were expressed as the concentration of inhibitor necessary to decrease the growth rate by 50%.

[4] = Table 2, EGRF-R, IC50 entries, read-out: IC50 (EGFR TK)

| Structure (SMILES) | inhibition at 100 µM ([1]; at 100 μM, PDGF-R) [%] | inhibition at 100 µM [2] [%] | IC50 [2, 4] [µM] | other results |
| --- | --- | --- | --- | --- |
| Cc1ccc2c(C(=O)Nc3ccccc3)c(SSc3c(C(=O)Nc4ccccc4)c4ccc(C)cc4n3C)n(C)c2c1 [Compound 77, bis [N-phenyl 1,6-dimethylindolyl-3-carboxamide-(2)]disulfide] | 1 | 9 |  |  |
| Cn1c(SSc2c(C(N)=O)c3ccccc3n2C)c(C(N)=O)c2ccccc21 [Compound 118, 2,2'-dithiobis[1-methylindolyl-3-carboxamide]] | 78 |  | 4.7 |  |
| Cn1c(SSc2c(C(=O)Nc3ccccc3C(=O)O)c3ccccc3n2C)c(C(=O)Nc2ccccc2C(=O)O)c2ccccc21 [Compound 109, 2,2'-dithiobis[N-(2'-carboxy)phenyl-1-methylindolyl-3-carboxamide]] | 8 |  | 47 |  |
| N#CCc1c(SSc2[nH]c3ccccc3c2CC#N)[nH]c2ccccc12 [Compound 35, 2,2'-dithiobis[3-indolylacetonitrile]] | 33.9 |  | 16.5 |  |
| COC(=O)CC1C(=S)Nc2ccccc21 (stereo not drawn) [Compound 3, methyl 2-(2-thioxo-3-indolinyl)acetate] | 8.6 | 43 |  |  |
| Cn1c(SSc2c(C(=O)Nc3ccccc3)c3cc(Br)ccc3n2C)c(C(=O)Nc2ccccc2)c2cc(Br)ccc21 [Compound 89, 2,2'-dithiobis[N-phenyl-5-bromo-1-methylindolyl-3-carboxamide]] | 3 |  | 11.4 |  |
| Cn1c(SSc2c(C(=O)NCC(=O)O)c3ccccc3n2C)c(C(=O)NCC(=O)O)c2ccccc21 [Compound 112, 2,2'-dithiobis[N-carboxymethyl1-methylindolyl-3-carboxamide]] | 69 |  | 10 |  |
| COC(=O)c1ccc(C(=O)C2C(=S)N(C)c3ccccc32)cc1 (stereo not drawn) [Compound 26, 3-(4'-carbomethoxybenzoyl) -1-methyl-2-indolinethione] |  |  |  | inhibition at 100 µM [1]: 5% |
| Cn1c(SSc2c(C(=O)Nc3ccccc3)c3cc(C#N)ccc3n2C)c(C(=O)Nc2ccccc2)c2cc(C#N)ccc21 [Compound 88, 2,2'-dithiobis[N-phenyl-5-cyano-1-methylindolyl-3-carboxamide]] | 51 |  | 54 |  |
| O=C(CCCc1c(SSc2[nH]c3ccccc3c2CCCC(=O)NCc2ccccc2)[nH]c2ccccc12)NCc1ccccc1 [Compound 69] | 8.9 | 55.6 |  |  |
| COC(=O)CCCc1c(SSc2[nH]c3ccccc3c2CCCC(=O)OC)[nH]c2ccccc12 [Compound 67, bis[methylindolyl-3-butanoate-(2)]-disulfide] | 2 | 18 |  |  |
| CONC(=O)CCc1c(SSc2[nH]c3ccccc3c2CCC(=O)NOC)[nH]c2ccccc12 [Compound 52] | 18.3 |  | 68.2 |  |
| Cn1c(SSc2c(C(=O)Nc3ccncc3)c3ccccc3n2C)c(C(=O)Nc2ccncc2)c2ccccc21 [Compound 116, 2,2'-dithiobis[N-(4-pyridyl)-1-methylindolyl-3-carboxamide]] |  | 4 |  | IC50 [1]: 7.9 µM |
| O=C(CCc1c(SSc2[nH]c3ccccc3c2CCC(=O)Nc2ccccc2)[nH]c2ccccc12)Nc1ccccc1 [Compound 59] | 11.4 |  | 30.5 |  |
| NC(=O)CCc1c(SSc2[nH]c3ccccc3c2CCC(N)=O)[nH]c2ccccc12 [Compound 50] | 62.6 |  | 16 |  |
| CCN(CC)CCNC(=O)c1c([Se][Se]c2[nH]c3ccccc3c2C(=O)NCCN(CC)CC)[nH]c2ccccc12 [Compound 134, 2,2'-diselenobis [N-[2-(diethylamino)ethyl]-1H-indole-3-carboxamide]] |  |  |  | IC50 [3]: 8 µM |
| CN(C(=O)c1c(SSc2c(C(=O)N(C)c3ccccc3)c3ccccc3n2C)n(C)c2ccccc12)c1ccccc1 [Compound 113, 2,2 '-dithiobis [N-methyl-N-phenyl-1-methylindolyl-3-carboxamide]] | 29 | 5 |  |  |
| Cn1c(SSc2c(C(=O)Nc3ccccc3)c3ccc(Cl)cc3n2C)c(C(=O)Nc2ccccc2)c2ccc(Cl)cc21 [Compound 85, bis[N-phenyl 6-chloro-1-methylindolyl-3-carboxamide-(2)]disulfide] | 7 | 8 |  |  |

| Structure (SMILES) | inhibition at 100 µM ([1]; at 100 μM, PDGF-R) [%] | inhibition at 100 µM [2] [%] | IC50 [2, 4] [µM] | other results |
| --- | --- | --- | --- | --- |
| O=C(NCc1ccccc1)C(Cc1c(SSc2[nH]c3ccccc3c2CC(NC(=O)C(F)(F)F)C(=O)NCc2ccccc2)[nH]c2ccccc12)NC(=O)C(F)(F)F (racemic) [Compound 61, 2,2'-dithiobis[N-benzyl-α-trifluoroacetylamino-3-(3-indolyl)propanamide]] | 11 | 37 |  |  |
| Cc1cccc2c(C(=O)Nc3ccccc3)c(SSc3c(C(=O)Nc4ccccc4)c4cccc(C)c4n3C)n(C)c12 [Compound 78, bis [N-phenyl 1,7-dimethyl indolyl-3-carboxamide-(2)]disulfide] | 7 | 27 |  |  |
| O=C(CC1C(=S)Nc2ccccc21)NCc1ccccc1 (stereo not drawn) [Compound 6, N-benzyl (2-thioxo-3-indolinyl) acetamide] | 8.5 |  | 25 |  |
| COc1ccc2c(c1)c(C(=O)Nc1ccccc1)c(SSc1c(C(=O)Nc3ccccc3)c3cc(OC)ccc3n1C)n2C [Compound 80, bis[N-phenyl 5-methoxy-1-methylindolyl-3-carboxamide-(2)]disulfide] | 16 | 0 |  |  |
| Cn1c(SSc2c(C(=O)Nc3ccccc3)c3cc([N+](=O)[O-])ccc3n2C)c(C(=O)Nc2ccccc2)c2cc([N+](=O)[O-])ccc21 [Compound 86, 2,2'-dithiobis [N-phenyl-1-methyl-5-nitroindolyl-3-carboxamide]] |  |  |  | inhibition at 100 µM [1]: 5%; IC50 [2]: 4.9 µM |
| Cn1c(SSc2c(C(=O)c3ccccc3)c3ccccc3n2C)c(C(=O)c2ccccc2)c2ccccc21 [Compound 100, bis[3-benzoyl-1-methylindole-(2)]disulfide] |  |  |  | inhibition at 100 µM [1]: 23% |
| CC(=O)Oc1cccc2c1c(C(=O)Nc1ccccc1)c(SSc1c(C(=O)Nc3ccccc3)c3c(OC(C)=O)cccc3n1C)n2C [Compound 90, 2,2'-dithiobis [N-phenyl 4-acetoxy-1-methylindolyl-3-carboxamide]] |  |  | 26 | IC50 [1]: 36.5 µM |
| Cn1c(SSc2c(C(=O)Nc3ccc(C(=O)O)cc3)c3ccccc3n2C)c(C(=O)Nc2ccc(C(=O)O)cc2)c2ccccc21 [Compound 105, 2,2'-dithiobis [N-(4'-carboxy)phenyl-1-methylindolyl-3-carboxamide]] | 33 |  | 16.9 |  |
| CN(C)C(=O)c1c(SSc2c(C(=O)N(C)C)c3ccccc3n2C)n(C)c2ccccc12 [Compound 119, 2,2'-dithiobis[N,N-dimethyl-1-methylindolyl-3-carboxamide]] | 73 |  | 21.2 |  |
| COC(=O)c1ccc(CNC(=O)CCc2c(SSc3[nH]c4ccccc4c3CCC(=O)NCc3ccc(C(=O)OC)c(O)c3)[nH]c3ccccc23)cc1O [Compound 57] | 14.5 | 46 |  |  |
| Cn1c(SSc2c(C(=O)Nc3cccnc3)c3ccccc3n2C)c(C(=O)Nc2cccnc2)c2ccccc21 [Compound 117, 2,2'-dithiobis [N-(3-pyridyl) 1-methylindolyl-3-carboxamide]] |  | 25 |  | IC50 [1]: 4.2 µM |
| O=C(CCc1c(SSc2[nH]c3ccccc3c2CCC(=O)NCc2ccc(C(=O)O)cc2)[nH]c2ccccc12)NCc1ccc(C(=O)O)cc1 [Compound 56, 2,2'-dithiobis[N-(4-carboxybenzyl)-3-(3-indolyl)propanamide]] | 44.5 |  | 7.3 |  |
| Cn1c(SSc2c(C(=O)Nc3ccccc3)c3c(Cl)cccc3n2C)c(C(=O)Nc2ccccc2)c2c(Cl)cccc21 [Compound 72, bis[N-phenyl 4-chloro-1-methylindolyl-3-carboxamide-(2)] disulfide] | 22 | 47 |  |  |
| Cn1c(SSc2c(C(=O)Nc3ccccc3)c3cc(F)ccc3n2C)c(C(=O)Nc2ccccc2)c2cc(F)ccc21 [Compound 87, 2,2'-dithiobis [N-phenyl-5-fluoro-1-methylindolyl-3-carboxamide]] | 44 | 34 |  |  |
| Cn1c(SSc2c(C(=O)Nc3ccccc3)c3cc(C(F)(F)F)ccc3n2C)c(C(=O)Nc2ccccc2)c2cc(C(F)(F)F)ccc21 [Compound 84, 2,2-dithiobis [N-phenyl-1-methyl-5-(trifluoro-methyl)indolyl-3-carboxamide]] | 22 | 35 |  |  |
| COC(=O)CCCC1C(=S)N(C)c2ccccc21 (stereo not drawn) [Compound 18, methyl 4-(1-methyl-2-thioxo-3-indolyl)butanoate] | 9 | 2 |  |  |
| Cn1c(SSc2c(C(=O)NCC(O)CO)c3ccccc3n2C)c(C(=O)NCC(O)CO)c2ccccc21 (stereo not drawn) [Compound 114, 2,2'-dithiobis [N-(2,3-dihydroxypropyl)-1-methylindolyl-3-carboxamide]] |  |  | 42.9 | IC50 [1]: 7 µM |
| O=C(CCc1c(SSc2[nH]c3ccccc3c2CCC(=O)NCCc2ccccc2)[nH]c2ccccc12)NCCc1ccccc1 [Compound 54, 2,2'-dithiobis[N-(2-phenylethyl) -3-(3-indolyl)propanamide]] | 20.6 |  | 29 |  |
